Source: patent US10508104B2, “6-hydroxy-5-(phenyl/heteroarylsulfonyl)pyrimidin-4(1H)-one as APJ agonists” (Bristol-Myers Squibb Company, priority 2016, dated 2019)
pEC50: −log10 of the molar value.

Biological target: human APJ receptor (Homo sapiens (Human), UniProt P35414)
Experiment: Intracellular cAMP accumulation assay (APJ hcAMP, HTRF)
Assay type: cell-based
Conditions: HEK293 cells stably expressing human APJ receptor; inhibition of forskolin-mediated cAMP production; read-out: Human APJ cAMP EC50 Potency range
Outline: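 HEK293 cells stably expressing human APJ, 5,000 per well, incubated 30 min at rt with compound, […] and 2 μM forskolin. cAMP measured by HTRF against a cAMP standard curve as inhibition of forskolin-driven production. EC50 from variable-slope sigmoidal fit.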

human APJ receptor, sequence (P35414 whole entry): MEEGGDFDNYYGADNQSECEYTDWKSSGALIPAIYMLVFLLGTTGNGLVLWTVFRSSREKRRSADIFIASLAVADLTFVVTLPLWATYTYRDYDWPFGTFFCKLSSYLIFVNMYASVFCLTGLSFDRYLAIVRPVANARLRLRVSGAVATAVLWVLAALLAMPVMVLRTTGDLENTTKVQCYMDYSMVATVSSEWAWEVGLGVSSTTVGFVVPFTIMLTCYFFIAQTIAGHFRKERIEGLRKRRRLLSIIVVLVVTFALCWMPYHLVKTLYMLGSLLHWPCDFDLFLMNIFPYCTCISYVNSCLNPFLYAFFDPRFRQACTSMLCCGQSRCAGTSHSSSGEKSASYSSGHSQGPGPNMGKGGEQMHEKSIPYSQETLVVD

pEC50	SMILES
8.00 to 11.00	CCCCc1nc(=O)c(S(=O)(=O)c2ccc(-c3ccnc(F)c3C)cn2)c(O)n1[C@@H](CC)c1cccc(C#N)c1 [Example 456, 3-[(1S)-1-[2-butyl-5-({2′-fluoro-3′-methyl-[3,4′-bipyridine]-6-yl}sulfonyl)-6-hydroxy-4-oxo-1,4-dihydropyrimidin-1-yl]propyl]benzonitrile]
8.00 to 11.00	CCCCc1nc(=O)c(S(=O)(=O)c2ccc(-c3ccncc3C)cn2)c(O)n1[C@@H](CC)c1cccc(C#N)c1 [Example 457, 3-[(1S)-1-[2-butyl-6-hydroxy-5-({3′-methyl-[3,4′-bipyridine]-6-yl}sulfonyl)-4-oxo-1,4-dihydropyrimidin-1-yl]propyl]benzonitrile]
8.00 to 11.00	CCCCc1nc(=O)c(S(=O)(=O)c2ccc(-c3ccnc(F)c3C)cc2)c(O)n1[C@@H](CC)c1cc(F)cc(C#N)c1 [Example 458, 3-[(1S)-1-{2-butyl-5-[4-(2-fluoro-3-methylpyridin-4-yl)benzenesulfonyl]-6-hydroxy-4-oxo-1,4-dihydropyrimidin-1-yl}propyl]-5-fluorobenzonitrile]
8.00 to 11.00	CCCCc1nc(=O)c(S(=O)(=O)c2ccc(-c3ccnc(F)c3C)cc2)c(O)n1C(c1cccc(C#N)c1)C1CC1 (centres unmarked) [Example 459, 3-({2-butyl-5-[4-(2-fluoro-3-methylpyridin-4-yl)benzenesulfonyl]-6-hydroxy-4-oxo-1,4-dihydropyrimidin-1-yl}(cyclopropyl)methyl) benzonitrile]
8.00 to 11.00	CCCCc1nc(=O)c(S(=O)(=O)c2ccc(-c3cccnc3C)cc2)c(O)n1C(c1cccc(C#N)c1)C1CC1 (centres unmarked) [Example 460, 3-({2-butyl-6-hydroxy-5-[4-(2-methylpyridin-3-yl)benzenesulfonyl]-4-oxo-1,4-dihydropyrimidin-1-yl}(cyclopropyl)methyl) benzonitrile]
8.00 to 11.00	CCCCc1nc(=O)c(S(=O)(=O)c2ccc(-c3ccc(F)nc3C)cc2)c(O)n1C(c1cccc(C#N)c1)C1CC1 (centres unmarked) [Example 461, 3-({2-butyl-5-[4-(6-fluoro-2-methylpyridin-3-yl)benzenesulfonyl]-6-hydroxy-4-oxo-1,4-dihydropyrimidin-1-yl}(cyclopropyl)methyl) benzonitrile]
8.00 to 11.00	CCCCc1nc(=O)c(S(=O)(=O)c2ccc(-c3ccncc3C)cc2)c(O)n1C(c1cccc(C#N)c1)C1CC1 (centres unmarked) [Example 462, 3-({2-butyl-6-hydroxy-5-[4-(3-methylpyridin-4-yl)benzenesulfonyl]-4-oxo-1,4-dihydropyrimidin-1-yl}(cyclopropyl)methyl) benzonitrile]
8.00 to 11.00	CCCCc1nc(=O)c(S(=O)(=O)c2ccc(-c3ccccc3C#N)cn2)c(O)n1[C@@H](CC)c1cccc(C#N)c1 [Example 463, 2-[6-({2-butyl-1-[(1S)-1-(3-cyanophenyl)propyl]-6-hydroxy-4-oxo-1,4-dihydropyrimidin-5-yl}sulfonyl)pyridin-3-yl]benzonitrile]
8.00 to 11.00	CCCCc1nc(=O)c(S(=O)(=O)c2ccc(-c3ccc(F)cc3C(N)=O)cn2)c(O)n1[C@@H](CC)c1cccc(C#N)c1 [Example 464, 2-[6-({2-butyl-1-[(1S)-1-(3-cyanophenyl)propyl]-6-hydroxy-4-oxo-1,4-dihydropyrimidin-5-yl)sulfonyl)pyridin-3-yl]-5-fluorobenzamide]
8.00 to 11.00	CCCCc1nc(=O)c(S(=O)(=O)c2ccc(-c3ccccc3C(N)=O)cc2)c(O)n1[C@@H](CC)c1cccc(C#N)c1 [Example 465, 4′-({2-butyl-1-[(1S)-1-(3-cyanophenyl)propyl]-6-hydroxy-4-oxo-1,4-dihydropyrimidin-5-yl}sulfonyl)-[1,1′-biphenyl]-2-carboxamide]
8.00 to 11.00	CCCCc1nc(=O)c(S(=O)(=O)c2ccc(-c3ccccc3C#N)cc2)c(O)n1[C@@H](CC)c1cccc(C#N)c1 [Example 466, 4′-({2-butyl-1-[(1S)-1-(3-cyanophenyl)propyl]-6-hydroxy-4-oxo-1,4-dihydropyrimidin-5-yl}sulfonyl)-[1,1′-biphenyl]-2-carbonitrile]
8.00 to 11.00	CCCCc1nc(=O)c(S(=O)(=O)c2ccc(-c3ccccc3C(N)=O)cn2)c(O)n1[C@@H](CC)c1cccc(C#N)c1 [Example 467, 2-[6-({2-butyl-1-[(1S)-1-(3-cyanophenyl)propyl]-6-hydroxy-4-oxo-1,4-dihydropyrimidin-5-yl}sulfonyl)pyridin-3-yl]benzamide]
8.00 to 11.00	CC[C@@H](c1cccc(C#N)c1)n1c(CC2CC2)nc(=O)c(S(=O)(=O)c2ccc(-c3ccccc3C(N)=O)cc2)c1O [Example 468, 4′-({1-[(1S)-1-(3-cyanophenyl)propyl]-2-(cyclopropylmethyl)-6-hydroxy-4-oxo-1,4-dihydropyrimidin-5-yl}sulfonyl)-[1,1′-biphenyl]-2-carboxamide]
8.00 to 11.00	CC[C@@H](c1cccc(C#N)c1)n1c(CC2CC2)nc(=O)c(S(=O)(=O)c2ccc(-c3ccc(F)cc3C(N)=O)cc2)c1O [Example 469, 4′-({1-[(1S)-1-(3-cyanophenyl)propyl]-2-(cyclopropylmethyl)-6-hydroxy-4-oxo-1,4-dihydropyrimidin-5-yl}sulfonyl)-4-fluoro-[1,1′-biphenyl]-2-carboxamide]
8.00 to 11.00	CC[C@@H](c1cccc(C#N)c1)n1c(CC2CC2)nc(=O)c(S(=O)(=O)c2ccc(-c3ccncc3C(N)=O)cc2)c1O [Example 470, 4-[4-({1-[(1S)-1-(3-cyanophenyl)propyl]-2-(cyclopropylmethyl)-6-hydroxy-4-oxo-1,4-dihydropyrimidin-5-yl}sulfonyl)phenyl] pyridine-3-carboxamide]
8.00 to 11.00	CC[C@@H](c1cccc(C#N)c1)n1c(CC2CC2)nc(=O)c(S(=O)(=O)c2ccc(-c3cnccc3C#N)cc2)c1O [Example 471, 3-[4-({1-[(1S)-1-(3-cyanophenyl)propyl]-2-(cyclopropylmethyl)-6-hydroxy-4-oxo-1,4-dihydropyrimidin-5-yl}sulfonyl)phenyl] pyridine-4-carbonitrile]
8.00 to 11.00	CC[C@@H](c1cccc(C#N)c1)n1c(CC2CC2)nc(=O)c(S(=O)(=O)c2ccc(-c3cnccc3C(N)=O)cc2)c1O [Example 472, 3-[4-({1-[(1S)-1-(3-cyanophenyl)propyl]-2-(cyclopropylmethyl)-6-hydroxy-4-oxo-1,4-dihydropyrimidin-5-yl}sulfonyl)phenyl] pyridine-4-carboxamide]
8.00 to 11.00	CC[C@@H](c1cc(F)cc(C#N)c1)n1c(CC2CC2)nc(=O)c(S(=O)(=O)c2ccc(-c3ccc(F)cc3C(N)=O)cc2)c1O [Example 473, 4′-({1-[(1S)-1-(3-cyano-5-fluorophenyl)propyl]-2-(cyclopropylmethyl)-6-hydroxy-4-oxo-1,4-dihydropyrimidin-5-yl}sulfonyl)-4-fluoro-[1,1′-biphenyl]-2-carboxamide]
8.00 to 11.00	CC[C@@H](c1cccc(C#N)c1)n1c(CC2CC2)nc(=O)c(S(=O)(=O)c2ccc(-c3ccncc3C#N)cc2)c1O [Example 474, 4-[4-({1-[(1S)-1-(3-cyanophenyl)propyl]-2-(cyclopropylmethyl)-6-hydroxy-4-oxo-1,4-dihydropyrimidin-5-yl}sulfonyl)phenyl] pyridine-3-carbonitrile]
8.00 to 11.00	CC[C@@H](c1cc(F)cc(C#N)c1)n1c(CC2CC2)nc(=O)c(S(=O)(=O)c2ccc(-c3ccncc3C)cc2)c1O [Example 475, 3-[(1S)-1-[2-(cyclopropylmethyl)-6-hydroxy-5-[4-(3-methylpyridin-4-yl)benzenesulfonyl]-4-oxo-1,4-dihydropyrimidin-1-yl]propyl]-5-fluorobenzonitrile]
8.00 to 11.00	CCCCc1nc(=O)c(S(=O)(=O)c2ccc(-c3ccnc(F)c3C)cc2)c(O)n1[C@H](c1cccc(C#N)c1)C1CC1 [Example 476, 3-[(S)-{2-butyl-5-[4-(2-fluoro-3-methylpyridin-4-yl)benzenesulfonyl]-6-hydroxy-4-oxo-1,4-dihydropyrimidin-1-yl}(cyclopropyl)methyl] benzonitrile]
8.00 to 11.00	CCCCc1nc(=O)c(S(=O)(=O)c2ccc(-c3ccc(F)cc3C(N)=O)cc2)c(O)n1[C@H](c1cccc(C#N)c1)C1CC1 [Example 477, 4′-({2-butyl-1-[(S)-(3-cyanophenyl)(cyclopropyl)methyl]-6-hydroxy-4-oxo-1,4-dihydropyrimidin-5-yl}sulfonyl)-4-fluoro-[1,1′-biphenyl]-2-carboxamide]
8.00 to 11.00	C/C=C(/c1cccc(C#N)c1)n1c(CCCC)nc(=O)c(S(=O)(=O)c2ccc(-c3ccncc3C)cc2)c1O [Example 478, 3-[(1Z)-1-{2-butyl-6-hydroxy-5-[4-(3-methylpyridin-4-yl)benzenesulfonyl]-4-oxo-1,4-dihydropyrimidin-1-yl}prop-1-en-1-yl]benzonitrile]
8.00 to 11.00	CCCCc1nc(=O)c(S(=O)(=O)c2ccc(-c3ccc(F)nc3C)cc2)c(O)n1[C@H](c1cccc(C#N)c1)C1CC1 [Example 479, 3-[(S)-{2-butyl-5-[4-(6-fluoro-2-raethylpyridin-3-yl)benzenesulfonyl]-6-hydroxy-4-oxo-1,4-dihydropyrimidin-1-yl}(cyclopropyl)methyl] benzonitrile]
8.00 to 11.00	CCCCc1nc(=O)c(S(=O)(=O)c2ccc(-c3cccn(C)c3=O)cc2)c(O)n1[C@H](c1cccc(C#N)c1)C1CC1 [Example 480, 3-[(S)-{2-butyl-6-hydroxy-5-[4-(1-methyl-2-oxo-1,2-dihydropyridin-3-yl)benzenesulfonyl]-4-oxo-1,4-dihydropyrimidin-1-yl}(cyclopropyl)methyl] benzonitrile]
8.00 to 11.00	CCCCc1nc(=O)c(S(=O)(=O)c2ccc(-c3ccccc3C(=O)OC)cn2)c(O)n1[C@@H](CC)c1cccc(C#N)c1 [Example 481, methyl 2-[6-({2-butyl-1-[(1S)-1-(3-cyanophenyl)propyl]-6-hydroxy-4-oxo-1,4-dihydropyrimidin-5-yl}sulfonyl)pyridin-3-yl]benzoate]
